tested on: Plasmodium berghei; experiment: Antimalarial activity against Plasmodium berghei infected in ICR mice (Mus musculus) assessed as delay in mortality at 160 mg/kg, perorally for 3 days; type: functional, organism-based; parameters: dose 160 mg/kg

Compared with `CC(C)CC(C)NCC(O)c1cc(C(F)(F)F)nc2c(C(F)(F)F)cccc12` (stereo not drawn), `CNCC(O)c1cc(C(F)(F)F)nc2c(C(F)(F)F)cccc12` (stereo not drawn) is higher in survival time: 2 days for the first, 25 days for the second.

First: CC1C(NCC(O)c2cc(C(F)(F)F)nc3c(C(F)(F)F)cccc23)CC2CC1C2(C)C (stereo not drawn)
Second: COCCNCC(O)c1cc(C(F)(F)F)nc2c(C(F)(F)F)cccc12 (stereo not drawn)
The survival time of the first is lower: 3 days for the first, 15 days for the second.

Compared with `CCCCNCC(O)c1cc(C(F)(F)F)nc2c(C(F)(F)F)cccc12` (stereo not drawn), `COCCCNCC(O)c1cc(C(F)(F)F)nc2c(C(F)(F)F)cccc12` (stereo not drawn) is higher in survival time: 8 days for the first, 9 days for the second.

`OC(c1cc(C(F)(F)F)nc2c(C(F)(F)F)cccc12)C1CCCCN1` (racemic) and `CSCCCNCC(O)c1cc(C(F)(F)F)nc2c(C(F)(F)F)cccc12` (stereo not drawn) are the same in survival time: 17 days for the first, 17 days for the second.

Reference: ChEMBL document CHEMBL1156893, “Structure-activity relationships amongst 4-position quinoline methanol antimalarials that inhibit the growth of drug sensitive and resistant strains of Plasmodium falciparum” (Bioorg Med Chem Lett, 2010)
